In patent publication US4369120A, “Refrigeration liquid with leak indicator and process of using same” (priority 1981, dated 1983):

Legend:
[1] = Solubility of dyes in refrigeration oils; conditions: Table I, Suniso 3GS refrigeration oil
Protocol: Manufacturers of refrigeration equipment generally demand that any refrigeration liquid satisfactorily pass such a sealed tube test before they approve the liquid for use in their equipment. In addition, the solubility of the various dyes in oil and in refrigerant were determined.
Solubility of various dyes in various refrigeration oils was carefully determined according to the following standardized procedure. An excess of the subject dye was added to a given weight (e.g., 100 g) of refrigerant oil. The mixture was stirred for one-half hour with mild heating, whereupon it was cooled to room temperature (about 21° C.) and transferred to a centrifuge tube. The mixture was centrifuged approximately 15 minutes at 1000 rpm. A sample of the supernatant liquid was decanted (1.00 g±0.01 g) and diluted to 100 ml volume with methylene chloride. Aliquot portions were taken and read against the principal absorption peaks by visible light spectroscopy. Wt/wt percentage concentrations were then calculated from proper standard curves.

[2] = Sealed tube test of stability of dyes in refrigerant/refrigeration oil with metal coupons; format: physicochemical; conditions: for stability in the sealed tube test (in words): 350° F., Table I dyes; for Stability, Mean Life: Table I, sealed tube data in R-12 at 350° F.
Protocol: By reference to Table I below it can be appreciated that such ortho substitution has a remarkably beneficial effect on the stability of the dyes in the accelerated sealed tube test used for evaluation. The first three dyes listed, embodying the principles of this invention, routinely withstand in excess of twenty days in the sealed tube test at 350° F. (176.7° C.), equivalent to many years of normal use in a refrigeration system.
The sealed tube test serves as a method of evaluating in an accelerated manner interactions of materials found in a refrigeration system.
Glass tubes and all metal test coupons are scrupulously cleaned. Test refrigerants are distilled to minimize moisture contamination. Moisture is removed from the refrigeration test oil "Suniso" 3GS by subjecting the oil to a vacuum with slight stirring and heating. Ratios of refrigerant/refrigerant oil range from 1:1 to 1:2 by weight.
Refrigerant oil and representative metal coupons of copper #10AWG wire, Swedish valve stock steel, and aluminum metal sheet are placed in a glass tube along with the subject test dye material (0.25-1.0% wt/wt) dissolved in the refrigerant oil. Like samples without the subject dye are analyzed as controls.
The tube and its contents are chilled in a liquid nitrogen bath while the refrigerant is condensed into the tube via a calibrated manometer. The tube is sealed under a vacuum of at least 0.1 torr.
Glass tubes and contents are subjected to uniform heating in a bored aluminum block placed in a temperature-programmed oven.
The oven temperatures used vary according to the test refrigerant, as indicated:
The test is run for one of the following time periods: 5, 14, 21, 30 or 60 days.
The tube contents may be evaluated by several methods:
of these methods, the visual examination is the most rapid and the only qualitative method. Any color change in the subject dye coloration is noted when compared to a control sample.
The quantitative methods involve analysis for decomposition products of chloride as hydrochloric acid or organic products by gas chromatography, infrared spectroscopy, or mass spectroscopy. However, visual inspection and gas chromatography are widely used, and they were selected as standardization procedures for evaluation of sealed tube contents.
R-12 is chemically one of the more reactive refrigerants; thus, short term tests with refrigeration liquids containing this refrigerant admixed with a mineral oil yield the most rapid results. R-22 and R-502 are also used but the decomposition products are more difficult to analyze by gas chromatography. Ultimately the test material must pass interactions involving any of these refrigerants. The visual method can be used empirically on a pass-fail basis. As verified experimentally, visual results are considered as valid as instrumental methods.

## CCCCc1ccc(N(C)c2ccc(N(C)c3ccc(CCCC)cc3)c3c2C(=O)c2ccccc2C3=O)cc1 [Dye No. 18-6, 1,4-Bis(N-methyl-4-n-butylanilino)anthraquinone]
[1]
  Oil Sol. In 3GS: 0.1%
[2]
  stability in the sealed tube test (in words): very unstable
  Stability, Mean Life: 4.3 days

## O=C1c2ccccc2C(=O)c2c(Nc3ccccc3C(F)(F)F)ccc(Nc3ccccc3C(F)(F)F)c21 [Dye No. 23-24, 1,4-Bis(2-trifluoro-methylanilino)]
[1]
  Oil Sol. In 3GS: 0.5%
[2]
  stability in the sealed tube test (in words): very unstable
  Stability, Mean Life: 6.5 days

## CN(c1ccccc1)c1ccc(N(C)c2ccccc2)c2c1C(=O)c1ccccc1C2=O [Dye No. 16-10, 1,4-Bis(N--methylanilino)]
[1]
  Oil Sol. In 3GS: 0.1%
[2]
  stability in the sealed tube test (in words): very unstable
  Stability, Mean Life: 7.0 days

## O=C1c2ccccc2C(=O)c2c(NC(c3ccccc3)c3ccccc3)ccc(NC(c3ccccc3)c3ccccc3)c21 [Dye No. 12-20, 1,4-Bis(diphenylmethylamino)]
[1]
  Oil Sol. In 3GS: < 0.05%
[2]
  Stability, Mean Life: 2.0 days

## CCCCOc1ccc(N(C)c2ccc(N(C)c3ccc(OCCCC)cc3)c3c2C(=O)c2ccccc2C3=O)cc1 [Dye No. 20-12, 1,4-Bis(N--methyl-4-n-butoxyanilino)]
[1]
  Oil Sol. In 3GS: 0.1%
[2]
  stability in the sealed tube test (in words): very unstable
  Stability, Mean Life: 4.0 days

## CC(C)(C)c1ccc(Nc2ccc(Nc3ccc(C(C)(C)C)cc3)c3c2C(=O)c2ccccc2C3=O)cc1 [Dye No. 6-21, 1,4-Bis(4-t-butylanilino)]
[1]
  Oil Sol. In 3GS: 1.0%
[2]
  Stability, Mean Life: 8.7 days

## CCCCc1ccc(Nc2ccc(Nc3ccc(CCCC)cc3)c3c2C(=O)c2ccccc2C3=O)cc1 [Dye No. 4-1, 1,4-Bis(4-n-butylanilino)]
[1]
  Oil Sol. In 3GS: < 1.0%
[2]
  Stability, Mean Life: 9.5 days

## CCCCCCCCNc1ccc(NCCCCCCCC)c2c1C(=O)c1ccccc1C2=O [Dye No. 13-27, 1,4-Bis(n-octylamino)]
[1]
  Oil Sol. In 3GS: 0.5%
[2]
  Stability, Mean Life: 4.4 days

## CC(C)(C)CNc1ccc(NCC(C)(C)C)c2c1C(=O)c1ccccc1C2=O [Dye No. 15-13, 1,4-Bis(neopentylamino)]
[1]
  Oil Sol. In 3GS: < 1.0%
[2]
  stability in the sealed tube test (in words): very unstable
  Stability, Mean Life: 3.4 days

## CCCCc1ccc(Nc2ccc(Nc3ccc(C)cc3)c3c2C(=O)c2ccccc2C3=O)cc1 [Dye No. 21-11, 1-(4-n-butylanilino)-4-(p-toluidino)]
[1]
  Oil Sol. In 3GS: 0.1%
[2]
  Stability, Mean Life: 7.7 days

## O=C1c2ccccc2C(=O)c2c(Nc3ccc(C4CCCCC4)cc3)ccc(Nc3ccc(C4CCCCC4)cc3)c21 [Dye No. 5-5, 1,4-Bis(4-cyclohexylanilino)]
[1]
  Oil Sol. In 3GS: 0.1%
[2]
  Stability, Mean Life: 9.7 days

## CCN(c1ccccc1)c1ccc(N(CC)c2ccccc2)c2c1C(=O)c1ccccc1C2=O [Dye No. 17-14, 1,4-Bis(N--ethylanilino)]
[1]
  Oil Sol. In 3GS: 1.0%
[2]
  stability in the sealed tube test (in words): very unstable
  Stability, Mean Life: 4.5 days

## CCCCc1ccc(Nc2cc(C)c(Nc3ccc(CCCC)cc3)c3c2C(=O)c2ccccc2C3=O)cc1 [Dye No. 22-16, 1,4-Bis(4-n-butylanilino)-2-methyl]
[1]
  Oil Sol. In 3GS: 1.0%
[2]
  stability in the sealed tube test (in words): very unstable
  Stability, Mean Life: 3.0 days

## O=C1c2ccccc2C(=O)c2c(NCc3ccccc3)ccc(NCc3ccccc3)c21 [Dye No. 10-19, 1,4-Bis(benzylamino)]
[1]
  Oil Sol. In 3GS: < 0.25%
[2]
  Stability, Mean Life: 4.5 days

## CCCCOc1ccc(Nc2ccc(Nc3ccc(OCCCC)cc3)c3c2C(=O)c2ccccc2C3=O)cc1 [Dye No. 8-2, 1,4-Bis(4-n-butoxyanilino)]
[1]
  Oil Sol. In 3GS: 0.02%
[2]
  Stability, Mean Life: 8.6 days

## CCOc1ccc(N(C)c2ccc(N(C)c3ccc(OCC)cc3)c3c2C(=O)c2ccccc2C3=O)cc1 [Dye No. 19-9, 1,4-Bis(N--methyl-4-ethoxyanilino)]
[1]
  Oil Sol. In 3GS: 0.1%
[2]
  stability in the sealed tube test (in words): very unstable
  Stability, Mean Life: 6.0 days

## CCOc1ccc(Nc2ccc(Nc3ccc(OCC)cc3)c3c2C(=O)c2ccccc2C3=O)cc1 [Dye No. 7-3, 1,4-Bis(4-ethoxyanilino)]
[1]
  Oil Sol. In 3GS: < 1.0%
[2]
  Stability, Mean Life: 8.5 days

## CCCCCCCCCCCCNc1ccc(NCCCCCCCCCCCC)c2c1C(=O)c1ccccc1C2=O [Dye No. 14-32, 1,4-Bis(n-dodecylamino)]
[1]
  Oil Sol. In 3GS: 0.5%
[2]
  Stability, Mean Life: 2.3 days

## O=C1c2ccccc2C(=O)c2c(NCCc3ccccc3)ccc(NCCc3ccccc3)c21 [Dye No. 9-8, 1,4-Bis(β-phenethylamino)]
[1]
  Oil Sol. In 3GS: 0.1%
[2]
  Stability, Mean Life: 4.4 days

## CC(Nc1ccc(NC(C)c2ccccc2)c2c1C(=O)c1ccccc1C2=O)c1ccccc1 (stereo not drawn) [Dye No. 11-17, 1,4-Bis(α-methylbenzylamino)]
[1]
  Oil Sol. In 3GS: 1.0%
[2]
  Stability, Mean Life: 3.5 days
